Measurements: US20070099876A1, “Target directed chemotherapy of tumours of the sexual organs” (priority 2003, published 2007)

System: mammary carcinoma of the rat
Experiment: mammary tumours induced by benzidine in female Wistar rats
Assay type: in vivo
Details: low dosage
Excerpt: For the development of active agents against tumours of the human sexual organs, an animal model closely similar to human tumours is needed, so that truly significant test results can be accomplished. The known “Huggins tumours” (C. Huggins et al., Rapid induction of mammary carcinoma in the rat and the influence of hormones, J. Exper. Med. 109, 25 (1959)) can be generated and combated easily, e.g. by endocrine manipulations and the usual chemotherapy (e.g. with endoxan®=cyclophosphamide monohydrate). In contrast, the tumours generated by benzidine in female Wistar rats require more time for induction and are (like human mammary tumour) only up to about 50% hormone dependent; they (like human mammary tumour) cannot be influenced effectively by chemotherapeutics and other methods of treatment in the art. Therefore, we have found the desired suitable animal model in Wistar rats with mammary tumours induced by benzidine.
20 female Wistar rats are treated with benzidine. The first benzidine dose is 150 mg/kg; then the doses are reduced to weekly 100 mg/kg. Then doses per 75 mg/kg follow within a gap of 14 days. There from a total dose of 1.225 g/kg results.
In total 29 mammary carcinomas are generated. […]
After the first tumour is generated (about 0.5 g) the benzidine application is stopped. […] The tumour size is determined tactually; experienced experimenters can determine it precisely to 0.1 g. […]

## CN(C)/N=N/c1ccc2c(c1)CCC1C2CCC2(C)C(=O)CCC12 (stereo not shown) [Example 11, 3-(1,1-dimethyltriazenyl)-estrone]
  effect against mammary carcinoma of the rat: very good effect at low dosage
